Measurements as given in ChEMBL document CHEMBL3885881, “DrugMatrix”.

Organism: Rattus norvegicus
Test: DrugMatrix - Regimen: Daily Repeat
Type: toxicity, organism-based, Sprague-Dawley
Parameters: regimen Daily Repeat, gender Male, age 6-8 weeks
Conditions: in vivo, ip, route intraperitoneal, vehicle 100 % SALINE; for ABSOLUTE BASOPHIL / ABSOLUTE EOSINOPHIL / ABSOLUTE LYMPHOCYTE / ABSOLUTE MONOCYTE / ABSOLUTE SEGMENTED NEUTROPHIL / BASOPHIL / EOSINOPHIL / ERYTHROCYTE COUNT / HEMATOCRIT / HEMOGLOBIN / LEUKOCYTE COUNT / LYMPHOCYTE / MEAN CORPUSCULAR HEMOGLOBIN / MEAN CORPUSCULAR HEMOGLOBIN CONCENTRATION / MEAN CORPUSCULAR VOLUME / MONOCYTE / NEUTROPHIL / PLATELET COUNT: tissue Blood; for ALANINE AMINOTRANSFERASE / ALBUMIN / ASPARTATE AMINOTRANSFERASE / BLOOD UREA NITROGEN / CHOLESTEROL / CREATINE PHOSPHOKINASE / CREATININE / GLUCOSE / LACTATE DEHYDROGENASE / LIPASE / POTASSIUM / SODIUM / TOTAL BILIRUBIN / TOTAL PROTEIN / URIC ACID / ALKALINE PHOSPHATASE / CHLORIDE / PHOSPHORUS: tissue Plasma
[1] = 0 mg/kg, 120 h, dose level Control, time 5 day
[2] = 0 mg/kg, […], dose level Control, time 14 day
[3] = 0 mg/kg, […], dose level Control, time 28 day
[4] = 0.5 mg/kg, 120 h, dose level High, time 5 day
[5] = 0.5 mg/kg, […], dose level High, time 14 day
[6] = 0.5 mg/kg, […], dose level High, time 28 day

## TRANSPLATIN
[1]
  ABSOLUTE BASOPHIL: 32 cells/µL
  ABSOLUTE EOSINOPHIL: 110 cells/µL
  ABSOLUTE LYMPHOCYTE: 6630 cells/µL
  ABSOLUTE MONOCYTE: 140 cells/µL
  ABSOLUTE SEGMENTED NEUTROPHIL: 1170 cells/µL
  BASOPHIL: 0.38%
  EOSINOPHIL: 1.28%
  ERYTHROCYTE COUNT: 7.45 x10E6/uL
  HEMATOCRIT: 45.74%
  HEMOGLOBIN: 14.72 G/DL
  LEUKOCYTE COUNT: 8.11 x10E3/uL
  LYMPHOCYTE: 81.3%
  MEAN CORPUSCULAR HEMOGLOBIN: 19.76 pg
  MEAN CORPUSCULAR HEMOGLOBIN CONCENTRATION: 32.16 G/DL
  MEAN CORPUSCULAR VOLUME: 61.38 fL
  MONOCYTE: 1.76%
  NEUTROPHIL: 14.9%
  PLATELET COUNT: 1322.4 x10E3/uL
  ALANINE AMINOTRANSFERASE: 25.8 u/L
  ALBUMIN: 3.64 G/DL
  ASPARTATE AMINOTRANSFERASE: 81.4 u/L
  BLOOD UREA NITROGEN: 14.4 mg/dL
  CHOLESTEROL: 69.2 mg/dL
  CREATINE PHOSPHOKINASE: 303.2 u/L
  CREATININE: 0.56 mg/dL
  GLUCOSE: 125.4 mg/dL
  LACTATE DEHYDROGENASE: 105.4 u/L
  LIPASE: 22.4 u/L
  POTASSIUM: 5.52 MEQ/L
  SODIUM: 147 MEQ/L
  TOTAL BILIRUBIN: 0.2 mg/dL
  TOTAL PROTEIN: 6.1 G/DL
  URIC ACID: 1.06 mg/dL
[2]
  ABSOLUTE BASOPHIL: 130 cells/µL
  ABSOLUTE EOSINOPHIL: 140 cells/µL
  ABSOLUTE LYMPHOCYTE: 13500 cells/µL
  ABSOLUTE MONOCYTE: 400 cells/µL
  ABSOLUTE SEGMENTED NEUTROPHIL: 2330 cells/µL
  BASOPHIL: 0.72%
  EOSINOPHIL: 0.86%
  ERYTHROCYTE COUNT: 7.74 x10E6/uL
  HEMATOCRIT: 45.98%
  LEUKOCYTE COUNT: 16.61 x10E3/uL
  LYMPHOCYTE: 81.34%
  MEAN CORPUSCULAR HEMOGLOBIN: 18 pg
  MEAN CORPUSCULAR HEMOGLOBIN CONCENTRATION: 30.22 G/DL
  MEAN CORPUSCULAR VOLUME: 59.4 fL
  MONOCYTE: 2.46%
  NEUTROPHIL: 14.14%
  PLATELET COUNT: 1445.5 x10E3/uL
  ALANINE AMINOTRANSFERASE: 31.6 u/L
  ALBUMIN: 3.66 G/DL
  ALKALINE PHOSPHATASE: 228.6 u/L
  ASPARTATE AMINOTRANSFERASE: 79.6 u/L
  BLOOD UREA NITROGEN: 11.2 mg/dL
  CHLORIDE: 107 MEQ/L
  CHOLESTEROL: 57 mg/dL
  CREATININE: 0.5 mg/dL
  GLUCOSE: 124.4 mg/dL
  LACTATE DEHYDROGENASE: 106.4 u/L
  LIPASE: 24.4 u/L
  PHOSPHORUS: 10.52 mg/dL
  POTASSIUM: 6.34 MEQ/L
  SODIUM: 149.2 MEQ/L
  TOTAL BILIRUBIN: 0.2 mg/dL
  TOTAL PROTEIN: 6.48 G/DL
  URIC ACID: 0.94 mg/dL
[3]
  ABSOLUTE BASOPHIL: 91 cells/µL
  ABSOLUTE EOSINOPHIL: 110 cells/µL
  ABSOLUTE LYMPHOCYTE: 9910 cells/µL
  ABSOLUTE MONOCYTE: 210 cells/µL
  ABSOLUTE SEGMENTED NEUTROPHIL: 1560 cells/µL
  BASOPHIL: 0.77%
  EOSINOPHIL: 0.92%
  ERYTHROCYTE COUNT: 8.21 x10E6/uL
  HEMATOCRIT: 47.53%
  HEMOGLOBIN: 15.65 G/DL
  LEUKOCYTE COUNT: 11.91 x10E3/uL
  LYMPHOCYTE: 83.34%
  MEAN CORPUSCULAR HEMOGLOBIN: 19.07 pg
  MEAN CORPUSCULAR HEMOGLOBIN CONCENTRATION: 32.93 G/DL
  MEAN CORPUSCULAR VOLUME: 57.9 fL
  MONOCYTE: 1.68%
  NEUTROPHIL: 12.97%
  PLATELET COUNT: 1323.8 x10E3/uL
  ALANINE AMINOTRANSFERASE: 30 u/L
  ALBUMIN: 3.71 G/DL
  ALKALINE PHOSPHATASE: 186.8 u/L
  ASPARTATE AMINOTRANSFERASE: 78.2 u/L
  BLOOD UREA NITROGEN: 14.2 mg/dL
  CHOLESTEROL: 44.9 mg/dL
  CREATINE PHOSPHOKINASE: 334.3 u/L
  CREATININE: 0.6 mg/dL
  GLUCOSE: 147.2 mg/dL
  LACTATE DEHYDROGENASE: 123.1 u/L
  LIPASE: 9.6 u/L
  PHOSPHORUS: 10.01 mg/dL
  POTASSIUM: 6.57 MEQ/L
  SODIUM: 149.5 MEQ/L
  TOTAL BILIRUBIN: 0.21 mg/dL
  TOTAL PROTEIN: 6.66 G/DL
  URIC ACID: 1.26 mg/dL
[4]
  ABSOLUTE BASOPHIL: 86 cells/µL
  ABSOLUTE EOSINOPHIL: 98 cells/µL
  ABSOLUTE LYMPHOCYTE: 10800 cells/µL
  ABSOLUTE MONOCYTE: 340 cells/µL
  ABSOLUTE SEGMENTED NEUTROPHIL: 1910 cells/µL
  BASOPHIL: 0.64%
  EOSINOPHIL: 0.74%
  ERYTHROCYTE COUNT: 7.41 x10E6/uL
  HEMATOCRIT: 45.48%
  HEMOGLOBIN: 14.92 G/DL
  LEUKOCYTE COUNT: 13.36 x10E3/uL
  LYMPHOCYTE: 80.42%
  MEAN CORPUSCULAR HEMOGLOBIN: 20.12 pg
  MEAN CORPUSCULAR HEMOGLOBIN CONCENTRATION: 32.8 G/DL
  MONOCYTE: 2.5%
  NEUTROPHIL: 14.94%
  PLATELET COUNT: 1349 x10E3/uL
  ALANINE AMINOTRANSFERASE: 30.2 u/L
  ALBUMIN: 3.6 G/DL
  ALKALINE PHOSPHATASE: 229 u/L
  ASPARTATE AMINOTRANSFERASE: 82.8 u/L
  BLOOD UREA NITROGEN: 15 mg/dL
  CHLORIDE: 110 MEQ/L
  CHOLESTEROL: 67.2 mg/dL
  CREATINE PHOSPHOKINASE: 368.2 u/L
  CREATININE: 0.52 mg/dL
  GLUCOSE: 119 mg/dL
  LACTATE DEHYDROGENASE: 67.6 u/L
  LIPASE: 22.4 u/L
  PHOSPHORUS: 9.94 mg/dL
  POTASSIUM: 6.16 MEQ/L
  SODIUM: 151.8 MEQ/L
  TOTAL BILIRUBIN: 0.2 mg/dL
  TOTAL PROTEIN: 6.2 G/DL
  URIC ACID: 0.98 mg/dL
[5]
  ABSOLUTE BASOPHIL: 68 cells/µL
  ABSOLUTE EOSINOPHIL: 76 cells/µL
  ABSOLUTE LYMPHOCYTE: 6430 cells/µL
  ABSOLUTE MONOCYTE: 260 cells/µL
  ABSOLUTE SEGMENTED NEUTROPHIL: 2460 cells/µL
  BASOPHIL: 0.74%
  EOSINOPHIL: 0.84%
  ERYTHROCYTE COUNT: 7.71 x10E6/uL
  HEMATOCRIT: 46.84%
  HEMOGLOBIN: 15.04 G/DL
  LEUKOCYTE COUNT: 9.33 x10E3/uL
  LYMPHOCYTE: 69.2%
  MEAN CORPUSCULAR HEMOGLOBIN: 19.52 pg
  MEAN CORPUSCULAR HEMOGLOBIN CONCENTRATION: 32.1 G/DL
  MONOCYTE: 2.7%
  NEUTROPHIL: 26.14%
  PLATELET COUNT: 1318.6 x10E3/uL
  ALANINE AMINOTRANSFERASE: 24.6 u/L
  ALBUMIN: 3.5 G/DL
  ALKALINE PHOSPHATASE: 202 u/L
  ASPARTATE AMINOTRANSFERASE: 78.6 u/L
  BLOOD UREA NITROGEN: 12.6 mg/dL
  CHOLESTEROL: 52.8 mg/dL
  CREATINE PHOSPHOKINASE: 180.2 u/L
  CREATININE: 0.58 mg/dL
  GLUCOSE: 120.4 mg/dL
  LACTATE DEHYDROGENASE: 80.8 u/L
  LIPASE: 54.4 u/L
  POTASSIUM: 5.82 MEQ/L
  SODIUM: 150.8 MEQ/L
  TOTAL BILIRUBIN: 0.3 mg/dL
  TOTAL PROTEIN: 6.48 G/DL
  URIC ACID: 0.98 mg/dL
[6]
  ABSOLUTE BASOPHIL: 120 cells/µL
  ABSOLUTE EOSINOPHIL: 130 cells/µL
  ABSOLUTE LYMPHOCYTE: 9640 cells/µL
  ABSOLUTE MONOCYTE: 190 cells/µL
  ABSOLUTE SEGMENTED NEUTROPHIL: 1790 cells/µL
  BASOPHIL: 1.07%
  EOSINOPHIL: 1.08%
  ERYTHROCYTE COUNT: 8.68 x10E6/uL
  HEMATOCRIT: 49.56%
  LEUKOCYTE COUNT: 11.93 x10E3/uL
  LYMPHOCYTE: 80.6%
  MEAN CORPUSCULAR HEMOGLOBIN: 18.81 pg
  MEAN CORPUSCULAR HEMOGLOBIN CONCENTRATION: 32.89 G/DL
  MEAN CORPUSCULAR VOLUME: 57.13 fL
  MONOCYTE: 1.64%
  NEUTROPHIL: 15.11%
  PLATELET COUNT: 1319.89 x10E3/uL
  ALANINE AMINOTRANSFERASE: 35.44 u/L
  ALBUMIN: 3.69 G/DL
  ALKALINE PHOSPHATASE: 151 u/L
  ASPARTATE AMINOTRANSFERASE: 83 u/L
  BLOOD UREA NITROGEN: 14 mg/dL
  CHLORIDE: 108.89 MEQ/L
  CHOLESTEROL: 61.44 mg/dL
  CREATINE PHOSPHOKINASE: 144.22 u/L
  CREATININE: 0.58 mg/dL
  GLUCOSE: 132.22 mg/dL
  LACTATE DEHYDROGENASE: 67.22 u/L
  LIPASE: 45.22 u/L
  PHOSPHORUS: 9.38 mg/dL
  SODIUM: 151.78 MEQ/L
  TOTAL BILIRUBIN: 0.2 mg/dL
  TOTAL PROTEIN: 6.82 G/DL
  URIC ACID: 1.21 mg/dL
